Laboratory results reported in patent US20220073525A1, “COMPOSITIONS FOR INHIBITING UBIQUITIN SPECIFIC PROTEASE 1” (FORMA Therapeutics, Inc., priority 2019, published 2022).
Read-outs that look alike come from different tables or passages of the source.

Biological target: USP1 (Homo sapiens, UniProt O94782)
Assay: Biochemical Assay for USP1 Inhibition (Ub-Rho 110 fluorescence)
Conditions: 30 min preincubation, Enzyme 0.025 nM, Substrate Ub-Rho 110 25 nM
How it was run: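 USP1 at 0.025 nM, preincubated 30 min with compound (25 μM to 1.3 nM, 10-point), then Ub-Rho 110 at 25 nM (<<Km) in Tris-HCl pH 8.0, 1 mM GSH, 0.03% BGG, 0.01% Triton X-100. Fluorescence read kinetically over 11 min; % inhibition versus no-enzyme and DMSO controls, IC50 from 4-parameter logistic fit.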

Sequence of USP1 (O94782 whole entry): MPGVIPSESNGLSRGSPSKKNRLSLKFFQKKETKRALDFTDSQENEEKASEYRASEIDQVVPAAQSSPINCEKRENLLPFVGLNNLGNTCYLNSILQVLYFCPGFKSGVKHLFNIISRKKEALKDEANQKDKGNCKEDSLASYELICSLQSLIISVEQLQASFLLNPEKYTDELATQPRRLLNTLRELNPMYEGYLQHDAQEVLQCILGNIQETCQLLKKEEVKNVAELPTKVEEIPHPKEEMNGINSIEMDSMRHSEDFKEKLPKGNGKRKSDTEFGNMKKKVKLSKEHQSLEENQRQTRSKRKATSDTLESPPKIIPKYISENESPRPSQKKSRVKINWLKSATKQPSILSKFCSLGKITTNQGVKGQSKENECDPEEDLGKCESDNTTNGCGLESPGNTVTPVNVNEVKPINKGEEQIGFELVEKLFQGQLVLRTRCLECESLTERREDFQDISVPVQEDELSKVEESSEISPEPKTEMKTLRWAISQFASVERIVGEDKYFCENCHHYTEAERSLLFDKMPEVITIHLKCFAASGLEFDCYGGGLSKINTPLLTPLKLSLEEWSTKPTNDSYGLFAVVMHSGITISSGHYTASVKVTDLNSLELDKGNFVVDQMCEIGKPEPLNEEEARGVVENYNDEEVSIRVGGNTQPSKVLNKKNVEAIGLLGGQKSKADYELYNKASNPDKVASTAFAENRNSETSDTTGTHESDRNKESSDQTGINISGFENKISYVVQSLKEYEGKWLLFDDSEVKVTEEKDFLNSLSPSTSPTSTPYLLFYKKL
Sequence of USP1 (Q8TAF3 whole entry partner): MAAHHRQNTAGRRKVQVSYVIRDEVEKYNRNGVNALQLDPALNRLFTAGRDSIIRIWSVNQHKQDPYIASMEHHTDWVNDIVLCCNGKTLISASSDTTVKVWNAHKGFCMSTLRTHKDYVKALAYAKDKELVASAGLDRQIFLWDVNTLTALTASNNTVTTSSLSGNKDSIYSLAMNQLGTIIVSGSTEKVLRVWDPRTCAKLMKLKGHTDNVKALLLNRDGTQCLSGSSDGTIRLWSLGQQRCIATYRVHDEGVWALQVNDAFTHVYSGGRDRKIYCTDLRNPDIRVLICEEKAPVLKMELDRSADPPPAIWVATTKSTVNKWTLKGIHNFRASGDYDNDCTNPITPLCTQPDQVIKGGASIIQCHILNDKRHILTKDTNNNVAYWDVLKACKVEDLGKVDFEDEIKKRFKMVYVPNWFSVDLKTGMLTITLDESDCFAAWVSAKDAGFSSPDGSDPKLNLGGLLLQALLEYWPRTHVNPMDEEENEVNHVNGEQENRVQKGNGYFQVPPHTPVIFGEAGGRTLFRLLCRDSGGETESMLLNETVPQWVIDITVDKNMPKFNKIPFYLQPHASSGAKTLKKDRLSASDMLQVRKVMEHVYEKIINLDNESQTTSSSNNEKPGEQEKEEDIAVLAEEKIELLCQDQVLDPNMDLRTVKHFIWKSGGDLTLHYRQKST

Structure (SMILES) | IC50 (Table 5, read-out: IC50 (μm)) [µM] | IC50 (Table 6, additional compounds, read-out: IC50) [µM]
Cc1nc(-c2cccnc2C(C)C)c2n1CCN(c1cnc(-c3nc(C(F)(F)F)cn3C)cn1)C2 [Compound 79, 2-{3-methyl-1-[2-(propan-2-yl)pyridin-3-yl]-5H,6H,7H,8H-imidazo[1,5-a]pyrazin-7-yl}-5-[1-methyl-4-(trifluoromethyl)-1H-imidazol-2-yl]pyrazine] | ≤ 1 | 
Cc1nc(-c2cccnc2C(C)C)c2n1CCN(c1ccc(-c3cnn(CC(C)C)c3)cc1)C2 [Compound 69, 3-(3-methyl-7-{4-[1-(2-methylpropyl)-1H-pyrazol-4-yl]phenyl}-5H,6H,7H,8H-imidazo[1,5-a]pyrazin-1-yl)-2-(propan-2-yl)pyridine] | 1 to 10 | 
Cc1nc(-c2cccnc2C(C)C)c2n1CCN(c1ccc(-c3nc(C(F)(F)F)cn3C)cn1)C2 [Compound 13, 2-{3-methyl-1-[2-(propan-2-yl)pyridin-3-yl]-5H,6H,7H,8H-imidazo[1,5-a]pyrazin-7-yl}-5-[1-methyl-4-(trifluoromethyl)-1H-imidazol-2-yl]pyridine] | ≤ 1 | 
Cc1cc(Cl)nn1-c1ccc(N2CCn3c(C)nc(-c4cccnc4OC(F)F)c3C2)cc1 [Compound 81, 3-{7-[4-(3-chloro-5-methyl-1H-pyrazol-1-yl)phenyl]-3-methyl-5H,6H,7H,8H-imidazo[1,5-a]pyrazin-1-yl}-2-(difluoromethoxy)pyridine] | ≤ 1 | 
Cc1nc(-c2cccnc2C(C)C)c2n1CCN(c1ccc(F)cc1)C2 [Compound 5, 3-[7-(4-fluorophenyl)-3-methyl-5H,6H,7H,8H-imidazo[1,5-a]pyrazin-1-yl]-2-(propan-2-yl)pyridine] | > 25 | 
COCCn1cc(-c2ccc(N3CCn4c(C)nc(-c5cccnc5C(C)C)c4C3)cc2)cn1 [Compound 70, 3-(7-{4-[1-(2-methoxyethyl)-1H-pyrazol-4-yl]phenyl}-3-methyl-5H,6H,7H,8H-imidazo[1,5-a]pyrazin-1-yl)-2-(propan-2-yl)pyridine] | 10 to 25 | 
Cc1nc(-c2cccnc2OC(F)F)c2n1CC(C)N(c1ccc(-c3nc(C(F)(F)F)cn3C)cc1)C2 (single isomer, unassigned) [Compound 27-1, 2-(difluoromethoxy)-3-[-3,6-dimethyl-7-{4-[1-methyl-4-(trifluoromethyl)-1H-imidazol-2-yl]phenyl}-5H,6H,7H,8H-imidazo[1,5-a]pyrazin-1-yl]pyridine] | ≤ 1 | 
Cc1nc(-c2cccnc2C(C)C)c2n1CCN(c1ccc(C(=O)N(C)C)cc1)C2 [Compound 50, N,N-dimethyl-4-{3-methyl-1-[2-(propan-2-yl)pyridin-3-yl]-5H,6H,7H,8H-imidazo[1,5-a]pyrazin-7-yl}benzamide] | 10 to 25 | 
Cc1cn(C)c(-c2ccc(N3CCn4c(C)nc(-c5cccnc5C(C)C)c4C3)cc2)n1 [Compound 77, 3-{7-[4-(1,4-dimethyl-1H-imidazol-2-yl)phenyl]-3-methyl-5H,6H,7H,8H-imidazo[1,5-a]pyrazin-1-yl}-2-(propan-2-yl)pyridine] | ≤ 1 | 
Cc1ccc(N2CCn3c(C)nc(-c4cccnc4C(C)C)c3C2)cc1 [Compound 21, 3-[3-methyl-7-(4-methylphenyl)-5H,6H,7H,8H-imidazo[1,5-a]pyrazin-1-yl]-2-(propan-2-yl)pyridine] | 10 to 25 | 
Cc1nc(-c2cccnc2C(C)C)c2n1CCN(c1ccc(-c3nc(C(F)(F)F)cn3C)cc1)C2=O [Compound C-5, 1-(2-isopropylpyridin-3-yl)-3-methyl-7-(4-(1-methyl-4-(trifluoromethyl)-1H-imidazol-2-yl)phenyl)-6,7-dihydroimidazo[1,5-a]pyrazin-8(5H)-one] |  | > 25
Cc1nc(-c2cccnc2C(C)C)c2n1CCN(c1ccc(-n3ccnn3)cc1)C2 [Compound 33, 3-{3-methyl-7-[4-(1H-1,2,3-triazol-1-yl)phenyl]-5H,6H,7H,8H-imidazo[1,5-a]pyrazin-1-yl}-2-(propan-2-yl)pyridine] | 10 to 25 | 
Cc1nc(-c2cccnc2C(C)C)c2n1CCN(c1ccc(C3CCCNC3=O)cc1)C2 (centres unmarked) [Compound 29, 3-(4-{3-methyl-1-[2-(propan-2-yl)pyridin-3-yl]-5H,6H,7H,8H-imidazo[1,5-a]pyrazin-7-yl}phenyl)piperidin-2-one] | > 25 | 
Cc1ccn(-c2ccc(N3CCn4c(C)nc(-c5cccnc5C(C)C)c4C3)cc2)n1 [Compound 31, 3-{3-methyl-7-[4-(3-methyl-1H-pyrazol-1-yl)phenyl]-5H,6H,7H,8H-imidazo[1,5-a]pyrazin-1-yl}-2-(propan-2-yl)pyridine] | ≤ 1 | 
Cc1nc(-c2cccnc2C(C)C)c2n1CCN(c1ccc(-c3nc(C(F)(F)F)cn3C)cc1)C2 [Compound 1, 1-(2-isopropylpyridin-3-yl)-3-methyl-7-(4-(1-methyl-4-(trifluoromethyl)-1H-imidazol-2-yl)phenyl)-5,6,7,8-tetrahydroimidazo[1,5-a]pyrazine] | ≤ 1 | 
Cc1nc(-c2cccnc2C(C)C)c2n1CCN(c1ccc(-c3ncccn3)cc1)C2 [Compound 41, 2-(4-{3-methyl-1-[2-(propan-2-yl)pyridin-3-yl]-5H,6H,7H,8H-imidazo[1,5-a]pyrazin-7-yl}phenyl)pyrimidine] | 1 to 10 | 
COc1ccc(N2CCn3c(C)nc(-c4cccnc4C(C)C)c3C2)cn1 [Compound 22, 2-methoxy-5-{3-methyl-1-[2-(propan-2-yl)pyridin-3-yl]-5H,6H,7H,8H-imidazo[1,5-a]pyrazin-7-yl}pyridine] | 10 to 25 | 
Cc1nc(-c2cccnc2C(C)C)c2n1CCN(c1cccc(C(=O)N(C)C3CC3)c1)C2 [Compound 60, N-cyclopropyl-N-methyl-3-{3-methyl-1-[2-(propan-2-yl)pyridin-3-yl]-5H,6H,7H,8H-imidazo[1,5-a]pyrazin-7-yl}benzamide] | > 25 | 
Cc1nc(-c2cccnc2C(C)C)c2n1CCN(c1ncccn1)C2 [Compound 10, 2-{3-methyl-1-[2-(propan-2-yl)pyridin-3-yl]-5H,6H,7H,8H-imidazo[1,5-a]pyrazin-7-yl}pyrimidine] | > 25 | 
Cc1nc(-c2cccnc2C(C)C)c2n1CCN(c1ccc(C(=O)N3CCC[C@@H]3C)cc1)C2 [Compound 55, 3-(3-methyl-7-{4-[(2S)-2-methylpyrrolidine-1-carbonyl]phenyl}-5H,6H,7H,8H-imidazo[1,5-a]pyrazin-1-yl)-2-(propan-2-yl)pyridine] | 1 to 10 | 
Cc1nc(-c2cccnc2C(C)C)c2n1CCN(c1ccc(C(=O)N3CCC[C@H]3C)cc1)C2 [Compound 54-1, 3-(3-methyl-7-{4-[(2R)-2-methylpyrrolidine-1-carbonyl]phenyl}-5H,6H,7H,8H-imidazo[1,5-a]pyrazin-1-yl)-2-(propan-2-yl)pyridine] | 10 to 25 | 
Cc1nnc(-c2ccc(N3CCn4c(C)nc(-c5cccnc5C(C)C)c4C3)cc2)o1 [Compound 44, 3-{3-methyl-7-[4-(5-methyl-1,3,4-oxadiazol-2-yl)phenyl]-5H,6H,7H,8H-imidazo[1,5-a]pyrazin-1-yl}-2-(propan-2-yl)pyridine] | 1 to 10 | 
Cc1nc(-c2cccnc2C(C)C)c2n1CCN(c1ccc(-c3nccn3C)cc1)C2 [Compound 14, 3-{3-methyl-7-[4-(1-methyl-1H-imidazol-2-yl)phenyl]-5H,6H,7H,8H-imidazo[1,5-a]pyrazin-1-yl}-2-(propan-2-yl)pyridine] | 1 to 10 | 
Cc1nc(-c2cccnc2C(C)C)c2n1CCN(c1ccc(-c3cncn3C)cc1)C2 [Compound 28, 3-{3-methyl-7-[4-(1-methyl-1H-imidazol-5-yl)phenyl]-5H,6H,7H,8H-imidazo[1,5-a]pyrazin-1-yl}-2-(propan-2-yl)pyridine] | > 25 | 
Cc1nnnn1-c1ccc(N2CCn3c(C)nc(-c4cccnc4C(C)C)c3C2)cc1 [Compound 39, 3-{3-methyl-7-[4-(5-methyl-1H-1,2,3,4-tetrazol-1-yl)phenyl]-5H,6H,7H,8H-imidazo[1,5-a]pyrazin-1-yl}-2-(propan-2-yl)pyridine] | > 25 | 
Cc1nc(-c2cccnc2C(C)C)c2n1CCN(c1cccc(C(=O)N3CCC[C@@H]3C)c1)C2 [Compound 62, 3-(3-methyl-7-{3-[(2S)-2-methylpyrrolidine-1-carbonyl]phenyl}-5H,6H,7H,8H-imidazo[1,5-a]pyrazin-1-yl)-2-(propan-2-yl)pyridine] | > 25 | 
